Test results from patent publication US7288671B2, “Interleukin-1 and tumor necrosis factor-α modulators, synthesis of said modulators and their enantiomers and methods of using said modulators” (Nereus Pharmaceuticals, Inc., priority 1999, dated 2007).
Read-outs that look alike come from different tables or passages of the source.

Assays:
[1] = test system: THP-1 cells; test: Resazurin (alamarBlue) cell viability assay in differentiated THP-1 cells; format: cell-based, human; conditions: footnote marks: * mild, ** marked reduction in viability, in % (unit assumed)
Procedure: (§1) The ability to inhibit TNF-α production was analyzed in THP-1 cells, a human acute monocytic leukemia cell line that is widely used to assess monocyte functions. In order to induce maturation, THP-1 cells were plated at 1×10^6 cells/ml and pretreated with 5 nM PMA for two days. Differentiated THP-1 cells were pretreated with various concentrations of NPI-1302a-3 or its analogs for 1 hour, followed by a 4 hour incubation with 1 μg of LPS (Sigma, St. Louse, Mo.). The P38 inhibitor (10 μM, SB 203580; Sigma, St. Louis, Mo.) was used as a positive control. Supernatants were collected and stored at −80° C. until assayed for TNF-α activity. A resazurin assay was performed for each analog to evaluate the effects on cell metabolism and viability.
A preparation of the dye resazurin, commercially-available as alamarBlue™ (Biosource International Inc.; 820 Flynn Road, Camarillo, Calif.), was used for the cytotoxicity assays described herein. The assays and experiments described herein were conducted in substantially the same manner as described in the scientific literature, for example, in Magnani, E and Bettini, E., “Resazurin detection of energy metabolism changes in serum-starved PC12 cells and of neuroprotective agent effect,” Brain Res Protoc., Jul. 5, 2000(3):266-72 and in Nociari M. M., Shalev A., Benias P., and Russo C. J, “A novel one-step, highly sensitive fluorometric assay to evaluate cell-mediated cytotoxicity,” Immunol.Methods 213, 157-167 (1998), see also U.S. Pat. No. 5,501,959, entitled “Antibiotic and Cytotoxic Drug Susceptibility Assays using Resazurin and Poising Agents,” the entire specification of which is incorporated herein by reference.

[2] = test system: TNF-α synthesis of THP-1 cells; test: LPS-induced TNF-α production in PMA-differentiated THP-1 cells (FLISA); format: cell-based, human; conditions: THP-1, LPS
Procedure: as §1
To detect the presence of human TNFα, fluorescent linked immunosorbent assay or FLISA was developed and optimized. 100 μl of beads (6 μm, Spherotech) coated with goat anit-mouse IgG (1 mg/ml, R and D Systems) were mixed with 4 μl of biotin-anti-hTNFα mouse IgG (0.1 mg/ml, R and D Systems) and 2 μl of FMAT Blue-streptavidin (0.1 mg/ml, Applied Biosystems). 50 μl of the mixtures was combined with 50 μl of the supernatant isolated from treated THP-1 cells and added to the black wall FLISA plates (Applied Biosystems) and incubated overnight. The plates were scanned at factory set PMT setting, and the values were plotted and analyzed by Applied Biosystems software.

[3] = test system: COX-2 (cyclooxygenase-2); conditions: cited from earlier work
[4] = test system: iNOS (inducible nitric oxide synthase); conditions: cited from earlier work
[5] = test system: cirrhosis; conditions: mice; cited from earlier work
[6] = test system: mice; conditions: cited from earlier work
[7] = test system: IL-6 synthesis; test: SAC-induced IL-6 synthesis, RAW 264.7 macrophage cells; format: cell-based, Murine
Procedure: (§2) Murine macrophage cells RAW 264.7 (1×10^6/ml) were pretreated for 30-60 minutes with varying doses of the synthetic compound of Formula (I), the synthetic compound of formula (I) and a panel of analogs (diluted in 0.5% DMSO) prior to stimulation with various agents such as lipopolysaccharide (LPS) or a gram positive agent like heat-killed Staph aureus (SAC). Supernatants collected over a 72-hour period will be assayed for the levels of TNF-α, IL-1, IL-6, IL-10, IL-12 and other cytokines either by elisa or bioassay. Additional studies to evaluate the effects of the synthetic compound of Formulae (I), (II), (IIA) and (IIB) on cytokine signaling pathways such as, for example, Caspase-activity (Nr-1, Nr.3), transcription factors such as NF-kB, MAP-kinase activity (p38, ERK and JNK) will also be performed.

[8] = test system: IFN-γ (interferon-gamma); conditions: same conditions; cited from earlier work
[9] = test system: TNF-α production; conditions: approximately 0.1 to approximately 1.0 microgram/ml for 48 hours; cited from earlier work
[10] = test system: IL-1 production; conditions: approximately 0.1 to approximately 1.0 microgram/ml for 48 hours; cited from earlier work
[11] = test system: IL-6; conditions: same conditions; cited from earlier work
[12] = test system: silicosis; conditions: mice; cited from earlier work
[13] = test system: rat; conditions: cited from earlier work
[14] = test system: TNF-α synthesis; test: Inhibition of SAC-induced TNF-α synthesis, RAW 264.7 macrophage cells; format: cell-based, Murine; conditions: SAC alone 375, unstimulated 5
Procedure: as §2

[15] = test system: IL-1 synthesis; test: Inhibition of SAC-induced IL-1 synthesis, RAW 264.7 macrophage cells; format: cell-based, Murine; conditions: for IL-1α: Table 6, SAC-induced, SAC alone 650, unstimulated 0
Procedure: as §2

[16] = test system: LPS/D-Gal administration; test: Mortality after LPS/D-Gal administration; format: in vivo; conditions: i.p., TTL3 45 minutes prior to LPS
[17] = test system: TNF-α synthesis; test: Inhibition of LPS-induced TNF-α synthesis, RAW 264.7 macrophage cells; format: cell-based, Murine; conditions: for TNF-α: Table 7, LPS alone 88
Procedure: as §2

## C=CC1(C)CCC=C2C1CCC1C(C)(CNCCN)CCCC21C (racemic) [CC-3-13 ra]
[1]; 100 ng/ml
  Cell Viability: 95*
[1]; 1 ug/ml
  Cell Viability: 75**
[1]; 10 ug/ml
  Cell Viability: 20**
[2]; 100 ng/ml
  Percent TNF-α Inhibition: 10%
[2]; 1 ug/ml
  Percent TNF-α Inhibition: 50%
[2]; 10 ug/ml
  Percent TNF-α Inhibition: 95%

## C=CC1(C)CCC=C2C1CCC1C(C)(CCNCCN)CCCC21C (racemic) [CC-3-15 ra]
[1]; 1 ug/ml
  Cell Viability: 100
[1]; 10 ug/ml
  Cell Viability: 100
[2]; 1 ug/ml
  Percent TNF-α Inhibition: 25%
[2]; 10 ug/ml
  Percent TNF-α Inhibition: 65%

## C=CC1(C)CCC=C2C1CCC1C(C)(C=O)CCCC21C (centres unmarked) [CC-3-09]
[1]; 100 ng/ml
  Cell Viability: 100
[1]; 1 ug/ml
  Cell Viability: 100
[1]; 10 ug/ml
  Cell Viability: 100
[2]; 100 ng/ml
  Percent TNF-α Inhibition: 0%
[2]; 1 ug/ml
  Percent TNF-α Inhibition: 0%
[2]; 10 ug/ml
  Percent TNF-α Inhibition: 10%

## C=CC1(C)CCC=C2C1CCC1C(C)(CC=O)CCCC21C (centres unmarked) [CC-3-14]
[1]; 100 ng/ml
  Cell Viability: 100
[1]; 1 ug/ml
  Cell Viability: 100
[2]; 100 ng/ml
  Percent TNF-α Inhibition: 25%
[2]; 1 ug/ml
  Percent TNF-α Inhibition: 30%

## C=CC1(C)CCC=C2C1CCC1C(C)(COC(=O)CCC(=O)O)CCCC21C (centres unmarked) [CC-3-17]
[1]; 100 ng/ml
  Cell Viability: 90*
[1]; 1 ug/ml
  Cell Viability: 85*
[1]; 10 ug/ml
  Cell Viability: 75**
[2]; 100 ng/ml
  Percent TNF-α Inhibition: 10%
[2]; 1 ug/ml
  Percent TNF-α Inhibition: 20%
[2]; 10 ug/ml
  Percent TNF-α Inhibition: 25%

## CC1(C)CC[C@]2(C(=O)O)CC[C@]3(C)[C@H](C(=O)C=C4[C@@]5(C)C=C(C#N)C(=O)C(C)(C)[C@@H]5CC[C@]43C)[C@@H]2C1 [Compound 54, 2-cyano-3,12-dioxoolean-1,9-dien-28-oic acid]
[3]
  fold more active than any other known triterpenoid in suppressing COX-2: 500 fold
[4]
  fold more active than any other known triterpenoid in suppressing iNOS: 500 fold

## C=C[C@@]1(C)CC=C2[C@@H](CC[C@@H]3[C@](C)(C(=O)O)CCC[C@@]23C)C1 [Formula (I), acanthoic acid]
[5]
  cirrotic liver cells (histologic analysis): remarkable recovery of the cirrotic liver cells
[6]
  toxicity: minimal toxicity
[6]; listed as 1
  toxicity: very little toxicity
[6]; orally
  LD: > 300 mg/100 g of body weight
[7]
  inhibition of IL-6 synthesis: neither analog TTL1 nor TTL3 significantly inhibited IL-6 synthesis
[8]
  production of IFN-γ: not affected
[9]
  inhibition of the TNF-α production: approximately 90%
[10]
  inhibition of the IL-1 production: approximately 90%
[11]
  production of IL-6: not affected
[12]
  fibrotic granulomas (histologic analysis): substantial reduction of fibrotic granulomas
[13]; rat, in vivo
  minimum lethal dose (MLD): 1000 mg/kg
[13]; rats
  toxicity: minimal toxicity

## C=CC1(C)CCC=C2C1CCC1C(C)(COC(C)=O)CCCC21C (centres unmarked) [LT-1-46]
[1]; 100 ng/ml
  Cell Viability: 100
[1]; 1 ug/ml
  Cell Viability: 90*
[1]; 10 ug/ml
  Cell Viability: 90*
[2]; 100 ng/ml
  Percent TNF-α Inhibition: 0%
[2]; 1 ug/ml
  Percent TNF-α Inhibition: 0%
[2]; 10 ug/ml
  Percent TNF-α Inhibition: 20%

## C=CC1(C)CCC=C2C1CCC1C(C)(C(=O)NCCN)CCCC21C (centres unmarked) [LT-1-74]
[1]; 100 ng/ml
  Cell Viability: 100
[1]; 1 ug/ml
  Cell Viability: 100
[2]; 100 ng/ml
  Percent TNF-α Inhibition: 25%
[2]; 1 ug/ml
  Percent TNF-α Inhibition: 30%

## C=CC1(C)CCC=C2C1CCC1C(C)(C(=O)N(CCO)CCO)CCCC21C (centres unmarked) [LT-1-78]
[1]; 100 ng/ml
  Cell Viability: 100
[1]; 1 ug/ml
  Cell Viability: 100
[1]; 10 ug/ml
  Cell Viability: 100
[2]; 100 ng/ml
  Percent TNF-α Inhibition: 0%
[2]; 1 ug/ml
  Percent TNF-α Inhibition: 0%
[2]; 10 ug/ml
  Percent TNF-α Inhibition: 20%

## C=CC1(C)CCC=C2C1CCC1C(C)(C(=O)N3CCOCC3)CCCC21C (centres unmarked) [LT-1-85]
[1]; 100 ng/ml
  Cell Viability: 100
[1]; 1 ug/ml
  Cell Viability: 100
[1]; 10 ug/ml
  Cell Viability: 80*
[2]; 100 ng/ml
  Percent TNF-α Inhibition: 10%
[2]; 1 ug/ml
  Percent TNF-α Inhibition: 45%
[2]; 10 ug/ml
  Percent TNF-α Inhibition: 55%

## C=C[C@@]1(C)CCC=C2[C@H]1CC[C@@H]1[C@](C)(C(=O)O)CCC[C@@]21C [TTL1]
[7]
  inhibition of IL-6 synthesis: neither analog TTL1 nor TTL3 significantly inhibited IL-6 synthesis
[1]; 100 ng/ml
  Cell Viability: 100
[1]; 1 ug/ml
  Cell Viability: 100
[2]; Homo sapiens, 100 ng/ml, read-out: Percent TNF-α Inhibition
  inhibition at 0.1 µg/mL: 10%
[2]; Homo sapiens, 1 ug/ml, read-out: Percent TNF-α Inhibition
  inhibition at 1 µg/mL: 30%
[2]; Homo sapiens, 10 ug/ml, read-out: Percent TNF-α Inhibition
  inhibition at 10 µg/mL: 50%

## C=CC1(C)CCC=C2C1CCC1C(C)(C(=O)OC)CCCC21C (centres unmarked) [TTL3]
[14]; Table 5, TTL3 0.001 μg/ml
  TNF-α: 80 ng/mL
[14]; Table 5, TTL3 0.01 μg/ml
  TNF-α: 75 ng/mL
[14]; Table 5, TTL3 0.1 μg/ml
  TNF-α: 85 ng/mL
[14]; Table 5, TTL3 1 μg/ml
  TNF-α: 60 ng/mL
[14]; Table 5, TTL3 10 μg/ml
  TNF-α: 80 ng/mL
[7]
  inhibition of IL-6 synthesis: neither analog TTL1 nor TTL3 significantly inhibited IL-6 synthesis
[1]; 100 ng/ml
  Cell Viability: 100
[1]; 1 ug/ml
  Cell Viability: 100
[1]; 10 ug/ml
  Cell Viability: 100
[15]; TTL3 0.001 μg/ml
  IL-1α: 200 pg/mL
[15]; TTL3 0.01 μg/ml
  IL-1α: 220 pg/mL
[15]; TTL3 0.1 μg/ml
  IL-1α: 190 pg/mL
[15]; TTL3 1 μg/ml
  IL-1α: 180 pg/mL
[15]; TTL3 10 μg/ml
  IL-1α: 170 pg/mL
[15]; stimulus not given
  times greater activity than TTL1 (inhibiting IL-1 synthesis): approximately 100 times
[16]; LPS/D-Gal alone 10/10, + DMSO 8/10
  Mortality 24 hours: 2/10
[16]; LPS/D-Gal alone 10/10, + DMSO 9/10
  Mortality 48 hours: 2/10
[17]; LPS (1 μg/ml) + TTL3 1.0 μg/ml
  TNF-α: 13 ng/mL
[17]; LPS (1 μg/ml) + TTL3 1 × 10^2 μg/ml
  TNF-α: 4 ng/mL
[17]; LPS (1 μg/ml) + TTL3 1 × 10^−4 μg/ml
  TNF-α: 15 ng/mL
[17]; LPS (1 μg/ml) + TTL3 1 × 10^−5 μg/ml
  TNF-α: 10 ng/mL
[17]; LPS (1 μg/ml) + TTL3 1 × 10^−6 μg/ml
  TNF-α: 18 ng/mL
[17]; LPS (1 μg/ml) + TTL3 1 × 10^−7 μg/ml
  TNF-α: 41 ng/mL
[17]; stimulus not given
  times greater activity than TTL1 (inhibiting TNF-α synthesis): approximately 100 times
[2]; 100 ng/ml
  Percent TNF-α Inhibition: 30%
[2]; 1 ug/ml
  Percent TNF-α Inhibition: 55%
[2]; 10 ug/ml
  Percent TNF-α Inhibition: 70%

## C=CC1(C)CCC=C2C1CCC1C(C)(C(=O)[O-])CCCC21C.[K+] (centres unmarked) [TTL-1K]
[2]; 100 ng/ml
  Percent TNF-α Inhibition: 10%
[2]; 1 ug/ml
  Percent TNF-α Inhibition: 50%

## C=CC1(C)CCC=C2C1CCC1C(C)(C(=O)[O-])CCCC21C.[Na+] (centres unmarked) [TTL-1Na]
[1]; 1 ug/ml
  Cell Viability: 90*
[1]; 10 ug/ml
  Cell Viability: 80*
[2]; 1 ug/ml
  Percent TNF-α Inhibition: 40%
[2]; 10 ug/ml
  Percent TNF-α Inhibition: 50%
